In US10918713B2, “Epitopes from allergen proteins and methods and uses for immune response modulation” (LA JOLLA INSTITUTE FOR ALLERGY AND IMMUNOLOGY, priority 2012, dated 2021):
“And” between values parts separate entries of the source, which are not always exact repeats. Equal values may be shown once.

Experiments:
Type in all cases: cell-based, human
[1] = test system: PBMC from allergic donors; test: Dual ELISPOT, total IL-5 and IFN-γ response (SFC); conditions: sum of IFNg and IL-5
Description: (§1) Spots were counted by computer-assisted image analysis (Zeiss, KS-ELISPOT reader, Munich, Germany).
(§2) Each assay was performed in triplicate. The level of statistical significance was determined with a Student's t-test using the mean of triplicate values of the response against relevant pools or individual peptides versus the response against the DMSO control.

[2] = test system: PBMC from allergic donors; test: IFN-γ ELISPOT with extract-stimulated short-term lines; conditions: positive donor/peptide response
Description: as §1, §2

[3] = test system: PBMC from allergic donors; test: IL-5 ELISPOT with extract-stimulated short-term lines; conditions: positive donor/peptide response
Description: as §1, §2

Row | Compound | Response (SFC/10^6) Total ([1]; each table line is one donor) | Response (SFC/10^6) Total ([1]; one donor per table line) | Response (SFC/10^6) IL-5 ([3]; one donor per table line) | further results
1 | 3324.1443 (DAAYRVAYEAAEGST) | 70 SFC/10^6 |  |  | Response (SFC/10^6) IFNg ([2]; each table line is one donor): 70 SFC/10^6
2 | 3324.0384 (VKAFKQVDVVISTVG) |  | 1007 SFC/10^6 |  | Response (SFC/10^6) IFNg ([2]; one donor per table line): 1007 SFC/10^6
3 | 3324.1151 (NEMSWIESIPFVHLG) | 1933 SFC/10^6 |  |  | Response (SFC/10^6) IFNg ([2]; each table line is one donor): 1933 SFC/10^6
4 | 3324.0633 (MLAVVAVVLASMVGG) |  | 227 SFC/10^6 |  | Response (SFC/10^6) IFNg ([2]; one donor per table line): 227 SFC/10^6
5 | 3324.1636 (FFSANAAALASRKSS) | 93 SFC/10^6 |  |  | Response (SFC/10^6) IFNg ([2]; each table line is one donor): 93 SFC/10^6
6 | CC[C@H](C)[C@H](NC(=O)[C@H](CC(N)=O)NC(=O)[C@H](CCSC)NC(=O)[C@H](CC(N)=O)NC(=O)[C@H](CCC(N)=O)NC(=O)[C@H](CO)NC(=O)[C@H](Cc1ccccc1)NC(=O)[C@@H](NC(=O)[C@@H](NC(=O)[C@H](Cc1c[nH]c2ccccc12)NC(=O)[C@H](CC(C)C)NC(=O)[C@H](C)NC(=O)[C@@H](N)CCCCN)[C@@H](C)CC)[C@@H](C)CC)C(=O)N[C@@H](CCCCN)C(=O)N[C@@H](CC(C)C)C(=O)O [3324.0604] |  | 390 SFC/10^6 |  | Response (SFC/10^6) IFNg ([2]; one donor per table line): 390 SFC/10^6
7 | 3337.0039 (SWGAIWRIDTPDKLT) | 155 SFC/10^6 |  |  | Response (SFC/10^6) IFNg ([2]; each table line is one donor): 155 SFC/10^6
8 | 3337.0007 (GKYCVCYDSKAICNK) | 47 SFC/10^6 |  |  | Response (SFC/10^6) IFNg ([2]; each table line is one donor): 47 SFC/10^6
9 | 3324.1171 (KTFVETFGTATNKAF) | 73 SFC/10^6 |  |  | Response (SFC/10^6) IFNg ([2]; each table line is one donor): 73 SFC/10^6
10 | 3324.0918 (NAMDEIIKSTDAEPA) |  | 260 SFC/10^6 |  | Response (SFC/10^6) IFNg ([2]; one donor per table line): 260 SFC/10^6
11 | 3324.0914 (FAFGYFNGRILGVCP) |  | 133 SFC/10^6 |  | Response (SFC/10^6) IFNg ([2]; one donor per table line): 133 SFC/10^6
12 | 3324.0639 (TVWAQSAAFPAFKPE) |  | 463 SFC/10^6 and 100 SFC/10^6 |  | Response (SFC/10^6) IFNg ([2]; one donor per table line): 463 SFC/10^6 and 100 SFC/10^6
13 | 3324.1166 (HTVALFLAVALVAGP) | 53 SFC/10^6 |  |  | Response (SFC/10^6) IFNg ([2]; each table line is one donor): 53 SFC/10^6
14 | 3324.1180 (PEAKYDAYVATLTEA) | 227 SFC/10^6 |  |  | Response (SFC/10^6) IFNg ([2]; each table line is one donor): 227 SFC/10^6
15 | CSCC[C@H](NC(=O)[C@H](Cc1ccccc1)NC(=O)[C@H](C)N)C(=O)N[C@@H](CC(C)C)C(=O)N[C@@H](C)C(=O)N[C@@H](Cc1c[nH]c2ccccc12)C(=O)N[C@@H](CC(N)=O)C(=O)N[C@@H](Cc1ccc(O)cc1)C(=O)NCC(=O)N[C@H](C(=O)N1CCC[C@H]1C(=O)N[C@@H](CCCNC(=N)N)C(=O)N[C@H](C(=O)N[C@@H](CCSC)C(=O)N[C@@H](CO)C(=O)O)C(C)C)C(C)C [3324.0977] |  | 1413 SFC/10^6 and 157 SFC/10^6 | 1413 SFC/10^6 and 157 SFC/10^6 | 
16 | 3324.0348 (RAVESYLLAHSDAYN) |  | 293 SFC/10^6 | 293 SFC/10^6 | 
17 | 3324.0838 (LESVKYVQSNGGAIN) |  | 467 SFC/10^6 | 467 SFC/10^6 | 
18 | 3324.0349 (TSVIPAARLFKAFFL) |  | 427 SFC/10^6 | 427 SFC/10^6 | 
19 | 3324.0964 (GGEKISVAKIFAHEK) |  | 137 SFC/10^6 | 137 SFC/10^6 | 
20 | CC[C@H](C)[C@H](N)C(=O)N[C@@H](CCC(=O)O)C(=O)N[C@@H](Cc1ccccc1)C(=O)N[C@@H](CCCNC(=N)N)C(=O)N[C@@H](Cc1ccccc1)C(=O)N[C@@H](Cc1ccc(O)cc1)C(=O)N[C@@H](CCCCN)C(=O)N[C@@H](CCC(=O)O)C(=O)N[C@H](C(=O)N[C@H](C(=O)N[C@@H](CC(N)=O)C(=O)N[C@H](C(=O)N[C@@H](Cc1ccccc1)C(=O)N[C@@H](CCCNC(=N)N)C(=O)NCC(=O)O)C(C)C)[C@@H](C)O)[C@@H](C)CC [3324.0976] |  | 153 SFC/10^6 and 610 SFC/10^6 | 153 SFC/10^6 and 610 SFC/10^6 | 
21 | 3324.0966 (EYWILTAAHCVAGQT) |  | 203 SFC/10^6 | 203 SFC/10^6 | 
22 | 3324.1549 (SSSFPQFKSEEITNI) |  | 77 SFC/10^6 | 77 SFC/10^6 | 
23 | CC[C@H](C)[C@H](NC(=O)[C@H](CO)NC(=O)[C@H](CC(C)C)NC(=O)[C@H](C)NC(=O)[C@H](CC(C)C)NC(=O)[C@H](CC(N)=O)NC(=O)[C@H](CCCCN)NC(=O)[C@H](CCC(=O)O)NC(=O)[C@H](CC(=O)O)NC(=O)[C@H](CO)NC(=O)CN)C(=O)N[C@@H](CCCCN)C(=O)N[C@@H](Cc1ccc(O)cc1)C(=O)N[C@@H](CC(N)=O)C(=O)N[C@@H](CCCCN)C(=O)O [3324.0657] |  | 1000 SFC/10^6 and 693 SFC/10^6 | 1000 SFC/10^6 and 693 SFC/10^6 | 
24 | 3324.1606 (KIAAEIAIALLFLRD) | 90 SFC/10^6 |  |  | Response (SFC/10^6) IL-5 ([3]; each table line is one donor): 90 SFC/10^6
25 | 3324.1550 (GVTVKKTNQALIFGI) |  | 93 SFC/10^6 | 93 SFC/10^6 | 
26 | 3324.0835 (QTHSAIAVIIGIKDL) |  | 317 SFC/10^6 | 317 SFC/10^6 | 

Row | Compound | Response (SFC/10^6) Total ([1]; each table line is one donor) | Response (SFC/10^6) Total ([1]; one donor per table line) | Response (SFC/10^6) IL-5 ([3]; one donor per table line) | further results
27 | 3324.1036 (TLPTILQIASVTKMS) |  | 120 SFC/10^6 | 120 SFC/10^6 | 
28 | 3324.0969 (TLANPILPASPNATI) |  | 167 SFC/10^6 | 167 SFC/10^6 | 
29 | 3324.0529 (MAAVAFLALQLIVMA) |  | 283 SFC/10^6 | 283 SFC/10^6 | 
30 | 3324.0991 (PRVMSSYFWNQIIKD) |  | 152 SFC/10^6 | 152 SFC/10^6 | 
31 | 3324.1040 (TIYSNVANLRNWIIS) |  | 297 SFC/10^6 | 297 SFC/10^6 | 
32 | 3324.1609 (SFGIILLQLLTARPP) | 103 SFC/10^6 |  |  | Response (SFC/10^6) IL-5 ([3]; each table line is one donor): 103 SFC/10^6
33 | 3324.0355 (DGSVWAQSSSFPQFK) |  | 1953 SFC/10^6 | 1953 SFC/10^6 | 
34 | 3324.1601 (GANLIVSNSAPRPDG) | 147 SFC/10^6 |  |  | Response (SFC/10^6) IL-5 ([3]; each table line is one donor): 147 SFC/10^6
35 | 3324.1594 (SDYFVGANLIVSNSA) | 920 SFC/10^6 |  |  | Response (SFC/10^6) IL-5 ([3]; each table line is one donor): 920 SFC/10^6
36 | CC[C@H](C)[C@H](N)C(=O)N[C@@H](CCCCN)C(=O)N[C@@H](CO)C(=O)N[C@@H](CC(=O)O)C(=O)N[C@@H](CCCCN)C(=O)N1CCC[C@H]1C(=O)N[C@@H](CC(C)C)C(=O)N[C@@H](CCCCN)C(=O)NCC(=O)N1CCC[C@H]1C(=O)N[C@@H](Cc1ccccc1)C(=O)N[C@@H](CC(N)=O)C(=O)N[C@@H](Cc1ccccc1)C(=O)N[C@@H](CCCNC(=N)N)C(=O)N[C@@H](Cc1ccccc1)C(=O)O [3324.1140] | 317 SFC/10^6 |  |  | Response (SFC/10^6) IL-5 ([3]; each table line is one donor): 317 SFC/10^6
37 | 3324.0622 (DKSMKVTVAFNQFGP) |  | 102 SFC/10^6 | 102 SFC/10^6 | 
38 | 3324.1134 (VALFAVFLGSAHGIA) |  | 208 SFC/10^6 | 208 SFC/10^6 | 
39 | 3324.1558 (NYLALLVKYVTGDGD) | 80 SFC/10^6 |  |  | Response (SFC/10^6) IL-5 ([3]; each table line is one donor): 80 SFC/10^6
40 | CC[C@H](C)[C@H](NC(=O)[C@H](C)NC(=O)[C@@H](NC(=O)[C@H](Cc1ccccc1)NC(=O)[C@H](C)NC(=O)[C@H](CCCNC(=N)N)NC(=O)[C@H](CC(N)=O)NC(=O)CNC(=O)[C@H](CCCNC(=N)N)NC(=O)[C@@H](N)CO)[C@@H](C)CC)C(=O)N[C@@H](CC(N)=O)C(=O)N[C@@H](CC(C)C)C(=O)N[C@@H](CCC(N)=O)C(=O)N[C@@H](CCCCN)C(=O)N[C@@H](CC(N)=O)C(=O)O [3324.0974] |  | 940 SFC/10^6 | 940 SFC/10^6 | 
41 | 3324.0967 (IDNDIALIKLKSPMK) |  | 187 SFC/10^6 | 187 SFC/10^6 | 
42 | 3324.1196 (AALTKAITAMTQAQK) | 998 SFC/10^6 |  |  | Response (SFC/10^6) IL-5 ([3]; each table line is one donor): 998 SFC/10^6
43 | 3324.1640 (VTAFGFDLVRGTKTL) | 73 SFC/10^6 |  |  | Response (SFC/10^6) IL-5 ([3]; each table line is one donor): 73 SFC/10^6
44 | 3324.1102 (DTCRARFITKLSEFI) |  | 67 SFC/10^6 | 67 SFC/10^6 | 
45 | 3324.1562 (DKFTVFEAAFNNAIK) | 183 SFC/10^6 |  |  | Response (SFC/10^6) IL-5 ([3]; each table line is one donor): 183 SFC/10^6
46 | 3324.0972 (LKAATAFMLAWNYGV) |  | 757 SFC/10^6 | 757 SFC/10^6 | 
47 | 3324.1001 (RKDLDIFEQYNLEMA) |  | 117 SFC/10^6 | 117 SFC/10^6 | 
48 | 3324.0960 (SELRRVDIAVVSRKE) |  | 120 SFC/10^6 | 120 SFC/10^6 | 
49 | 3324.1178 (EVKYTVSETALKKAV) | 333 SFC/10^6 |  |  | Response (SFC/10^6) IL-5 ([3]; each table line is one donor): 333 SFC/10^6
50 | CC[C@H](C)[C@H](NC(=O)[C@H](Cc1ccccc1)NC(=O)[C@H](CCCCN)NC(=O)[C@H](Cc1ccc(O)cc1)NC(=O)[C@H](CO)NC(=O)[C@@H](N)CC(=O)O)C(=O)N1CCC[C@H]1C(=O)N[C@H](C(=O)N[C@@H](CC(C)C)C(=O)N[C@H](C(=O)N[C@@H](C)C(=O)N[C@@H](C)C(=O)N[C@H](C(=O)N[C@@H](CCCCN)C(=O)N[C@@H](CCC(N)=O)C(=O)O)C(C)C)C(C)C)[C@@H](C)O [3324.1165] | 382 SFC/10^6 and 78 SFC/10^6 |  |  | Response (SFC/10^6) IL-5 ([3]; each table line is one donor): 382 SFC/10^6 and 78 SFC/10^6
51 | 3324.0992 (DALVMIDSHDLRVGH) |  | 290 SFC/10^6 | 290 SFC/10^6 | 
